# Results as given in patent US20250051355A1, “COMPOUNDS, COMPOSITIONS, AND METHODS” (ACONCAGUA BIO, INC., priority 2023, published 2025).
# Molecular target: human calcitonin receptor (CTR) and RAMP3 (AMY3) (Homo sapiens, UniProt O60896+P30988)
# Assay: Amylin Receptor cAMP Assay I
# Type: cell-based
# Details: COS-7/AMY3 cells, cAMP Hi-range Kit, read-out: Amylin Receptor cAMP Stimulation Activity: EC50
# Excerpt: Amylin Receptor cAMP Assay I
# AMYRs are heterodimers of the class B calcitonin (CT) G-protein-coupled receptor (CTR) and receptor activity-modifying proteins (RAMPs). All three RAMPs can interact with the CTR and form AMY1, AMY2, AMY3 with RAMP1, RAMP2 and RAMP3, respectively. Like other class B1 GPCRs, the CT receptor family is canonically coupled to Gs-mediated cAMP production, and measurement of cAMP accumulation has been the primary assay used to determine peptide selectivity and potency.
# To optimize functional activity directed toward Gas coupling, COS-7 cells were stably transfected with human calcitonin receptor (CTR) and RAMP3, simultaneously. 100×concentration of compound working solutions were prepared (Agilent Technologies Bravo) with 4-fold serial dilution in 384-well Echo LDV plate (Labcyte, Cat #LP-0200). 100 nL/well 100× concentration of compound working solutions were moved to 384-well white low volume plate (Greiner, Cat #784075) using Labcyte ECHO550. 1×10^5 cells/mL COS-7/CTR or COS-7/AMY3 (HD Biosciences) cell suspensions prepared with assay buffer [DPBS containing 0.5 mM IBMX (Sigma, Cat #15879) and 0.1% BSA (GENVIEW, Cat #FAO16-100 g)], 10 μL cell suspensions were added to each well of previous generated assay plate which already contains 100 nL compound at 100× concentration using ThermoFisher Multidrop Combi (1000 cells/well). Seal the plate and incubate at 37° C. with 5% CO2 for 30 min.
# After incubation, the cAMP assay signal was generated using cAMP Hi-range Kit (Cisbio). 5 μL cAMP-d2 working solution was added to each well, followed by 5 μL Anti-cAMP antibody-cryptate working solution which was added to each well using ThermoFisher Multidrop Combi. The samples were then incubated at room temperature for 1 hour protected from light. the fluorescence was read at 665 and 615 nm with Reader PerkinElmer EnVision.
# Chain of human calcitonin receptor (CTR) and RAMP3 (AMY3) (O60896 24-148): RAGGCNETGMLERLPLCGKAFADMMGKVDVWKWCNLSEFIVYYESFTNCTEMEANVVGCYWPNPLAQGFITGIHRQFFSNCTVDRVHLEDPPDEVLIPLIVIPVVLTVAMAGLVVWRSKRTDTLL
# Chain of human calcitonin receptor (CTR) and RAMP3 (AMY3) (P30988 25-474): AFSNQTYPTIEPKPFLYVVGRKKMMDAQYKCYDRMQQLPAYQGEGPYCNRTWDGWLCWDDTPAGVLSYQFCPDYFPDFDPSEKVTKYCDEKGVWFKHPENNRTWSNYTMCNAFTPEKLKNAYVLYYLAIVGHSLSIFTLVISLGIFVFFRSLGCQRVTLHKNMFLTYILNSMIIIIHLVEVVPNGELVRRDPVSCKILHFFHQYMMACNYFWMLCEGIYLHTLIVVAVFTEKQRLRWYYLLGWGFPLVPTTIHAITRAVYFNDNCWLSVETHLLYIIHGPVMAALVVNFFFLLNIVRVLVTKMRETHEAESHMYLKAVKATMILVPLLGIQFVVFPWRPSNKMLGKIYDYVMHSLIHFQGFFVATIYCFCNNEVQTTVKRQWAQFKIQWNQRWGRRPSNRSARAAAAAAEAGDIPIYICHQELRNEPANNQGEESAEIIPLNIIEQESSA
row,EC50 [nM],SMILES
1,> 100,"Cc1nnc(-c2c(CCOC(C)C)nc3c(c2-c2ccc(C(=O)NCc4ccc(F)c(F)c4)s2)C(=O)N2CCC[C@@H]32)o1 [Compound 35, (S)—N-(3,4-difluorobenzyl)-5-(2-(2-isopropoxyethyl)-3-(5-methyl-1,3,4-oxadiazol-2-yl)-5-oxo-7,8,9,9a-tetrahydro-5H-pyrido[2,3-a]pyrrolizin-4-yl)thiophene-2-carboxamide]"
2,2370,"Cc1nnc(-c2c(CCc3ccc(F)cc3)nc3c(c2-c2ccc(C(=O)N[C@@H]4CCc5ccccc54)s2)C(=O)NC[C@H]3C(C)C)o1 [Compound 16, N—((R)-2,3-dihydro-1H-inden-1-yl)-5-((R)-2-(4-fluorophenethyl)-8-isopropyl-3-(5-methyl-1,3,4-oxadiazol-2-yl)-5-oxo-5,6,7,8-tetrahydro-1,6-naphthyridin-4-yl)thiophene-2-carboxamide]"
3,70.2,"COc1cccc2c1CC[C@H]2NC(=O)c1ccc(-c2c3c(nc(CCc4ccc(F)cc4)c2-c2nnc(C)o2)[C@H](C(C)C)NC3=O)s1 [Compound 3, N—[(R)-4-methoxy-1-indanyl]-5-{(S)-5-[2-(p-fluorophenyl)ethyl]-3-isopropyl-6-(5-methyl-1,3,4-oxadiazol-2-yl)-1-oxo-2,4-diaza-7-indanyl)-2-thenamide]"
4,27.8,Cc1nnc(-c2c(CCC3CCOCC3)nc3c(c2-c2cc4ccnc(N[C@@H]5CCc6cc(F)ccc65)c4s2)C(=O)N2CCC[C@@H]32)o1 [Compound 71]
5,975,"Cc1nnc(-c2c(CCC3CCOC(C)(C)C3)nc3c(c2-c2ccc(C(=O)NCc4ccc(F)c(F)c4)s2)C(=O)N2CCC[C@@H]32)o1 (stereo partly drawn) [Compound 66, N-(3,4-difluorobenzyl)-5-((9aS)-2-(2-(2,2-dimethyltetrahydro-2H-pyran-4-yl)ethyl)-3-(5-methyl-1,3,4-oxadiazol-2-yl)-5-oxo-7,8,9,9a-tetrahydro-5H-pyrido[2,3-a]pyrrolizin-4-yl)thiophene-2-carboxamide]"
6,20.5,"Cc1nc(C)c(-c2c(CCc3ccc(F)cc3)nc3c(c2-c2ccc(C(=O)NCc4ccc(F)c(F)c4)s2)C(=O)N2CCC[C@@H]32)o1 [Compound 34, (S)—N-(3,4-difluorobenzyl)-5-(3-(2,4-dimethyloxazol-5-yl)-2-(4-fluorophenethyl)-5-oxo-7,8,9,9a-tetrahydro-5H-pyrido[2,3-a]pyrrolizin-4-yl)thiophene-2-carboxamide]"
7,80,Cc1cnc(-c2c(CCc3ccc(F)cc3)nc3c(c2-c2ccc(C(=O)NCc4ccc(F)c(F)c4)s2)S(=O)(=O)N2CCC[C@@H]32)o1 [Compound 24]
8,321,CO[C@@H]1C[C@@H](NC(=O)c2ccc(-c3c4c(nc(CCc5ccc(F)cc5)c3-c3nnc(C)o3)[C@@H]3CCCN3C4=O)s2)c2ccccc21 (stereo in doubt) [Compound 48]
9,2200,COc1cccc(CNc2nccc3cc(-c4c5c(nc(CCC6CCOCC6)c4-c4nnc(C)o4)[C@@H]4CCCN4C5=O)sc23)c1 [Compound 73]
10,1130,Cc1ccc(CCc2nc3c(c(-c4ccc(C(=O)NCc5ccc(F)c(F)c5)s4)c2-c2nnc(C)o2)C(=O)N2CCC[C@@H]32)cn1 [Compound 22]
11,29.7,"COc1cccc2c1CC[C@H]2NC(=O)c1ccc(-c2c3c(nc(CCc4ccc(F)cc4)c2-c2nnc(C)o2)[C@@H]2CCCN2C3=O)s1 [Compound 13, N—[(R)-4-methoxy-1-indanyl]-5-((2S)-11-[2-(p-fluorophenyl)ethyl]-10-(5-methyl-1,3,4-oxadiazol-2-yl)-7-oxo-6,12-diazatricyclo[6.4.0.0^2,6]dodeca-1(12),8,10-trien-9-yl}-2-thenamide]"
12,728,"Cc1nnc(-c2c(COc3ccc(F)cc3)nc3c(c2-c2ccc(C(=O)N[C@@H]4CCc5ncccc54)s2)C(=O)N2CCC[C@@H]32)o1 [Compound 32, N—[(R)-4-aza-1-indanyl]-5-{(2S)-11-[(p-fluorophenoxy)methyl]-10-(5-methyl-1,3,4-oxadiazol-2-yl)-7-oxo-6,12-diazatricyclo[6.4.0.0^2,6]dodeca-1(8),9,11-trien-9-yl}-2-thenamide]"
13,81.4,Cc1nnc(-c2c(CCC3CCOCC3)nc3c(c2-c2cc4ccnc(N[C@@H]5CCc6ccc(F)cc65)c4s2)C(=O)N2CCC[C@@H]32)o1 [Compound 72]
14,551,"Cc1nnc(-c2c(CC(O)c3ccc(F)cc3)nc3c(c2-c2ccc(C(=O)N[C@@H]4CCc5ccccc54)s2)C(=O)N2CCC[C@@H]32)o1 (stereo partly drawn) [Compound 51, N-[(1R)-2,3-dihydro-1H-indenyl]-5-[(9aS)-2-[2-(4-fluorophenyl)-2-hydroxyethyl]-3-(5-methyl-1,3,4-oxadiazol-2-yl)-5-oxo-7,8,9,9a-tetrahydro-5H-pyrido[2,3-a]pyrrolizin-4-yl]thiophene-2-carboxamide]"
15,1810,"CCc1nc2c(c(-c3ccc(C(=O)N[C@@H]4CCc5cc(F)ccc54)s3)c1-c1nnc(C)o1)C(=O)N1CCC[C@@H]21 [Compound 82, N—[(R)-5-fluoro-1-indanyl]-5-((2S)-11-ethyl-10-(5-methyl-1,3,4-oxadiazol-2-yl)-7-oxo-6,12-diazatricyclo[6.4.0.0^2,6]dodeca-1(8),9,11-trien-9-yl}-2-thenamide]"
16,674,"Cc1ccc(CCc2nc3c(c(-c4ccc(C(=O)NCc5ccc(F)c(F)c5)s4)c2-c2nnc(C)o2)C(=O)N2CCC[C@@H]32)nc1 [Compound 6, (S)—N-(3,4-difluorobenzyl)-5-(3-(5-methyl-1,3,4-oxadiazol-2-yl)-2-(2-(5-methylpyridin-2-yl)ethyl)-5-oxo-7,8,9,9a-tetrahydro-5H-pyrido[2,3-a]pyrrolizin-4-yl)thiophene-2-carboxamide]"
17,22.8,Cc1cnc(-c2c(CCc3ccc(F)cc3)nc3c(c2-c2cc4ccnc(NCc5ccc(F)c(F)c5)c4s2)C(=O)N2CCC[C@@H]32)o1 [Compound 41]
18,63.5,"CO[C@H]1C[C@@H](NC(=O)c2ccc(-c3c4c(nc(CCc5ccc(F)cc5)c3-c3nnc(C)o3)[C@@H]3CCCN3C4=O)s2)c2ccccc21 (stereo in doubt) [Compound 30, N-[(1R,3S)-3-methoxy-1-indanyl]-5-{(2S,6R)-11-[2-(p-fluorophenyl)ethyl]-10-(5-methyl-1,3,4-oxadiazol-2-yl)-7-oxo-6,12-diazatricyclo[6.4.0^2,^6]dodeca-1(8),9,11-trien-9-yl}-2-thenamide]"
19,360,Cc1cnc(-c2c(CCC3CCOCC3)nc3c(c2-c2cc4ccnc(NCc5cncc(F)c5)c4s2)C(=O)N2CCC[C@@H]32)o1 [Compound 75]
20,41.2,"Cc1ncoc1-c1c(CCc2ccc(F)cc2)nc2c(c1-c1ccc(C(=O)NCc3ccc(F)c(F)c3)s1)C(=O)N1CCC[C@@H]21 [Compound 31, (S)—N-(3,4-difluorobenzyl)-5-(2-(4-fluorophenethyl)-3-(4-methyloxazol-5-yl)-5-oxo-7,8,9,9a-tetrahydro-5H-pyrido[2,3-a]pyrrolizin-4-yl)thiophene-2-carboxamide]"
21,13.1,Cc1nnc(-c2c(CCc3ccc(F)cc3)nc3c(c2-c2cc4ccnc(NCc5ccc(F)c(F)c5)c4s2)C(=O)N2CCCC32O)o1 (centres unmarked) [Compound 53]
22,129,"Cc1nnc(-c2c(CCc3ccc(F)cc3)nc3c(c2-c2ccc(C(=O)NCc4ccc(F)c(F)c4)s2)C(=O)N2CC[C@H](O)[C@@H]32)o1 [Compound 50, N-(3,4-difluorobenzyl)-5-((9S,9aR)-2-(4-fluorophenethyl)-9-hydroxy-3-(5-methyl-1,3,4-oxadiazol-2-yl)-5-oxo-7,8,9,9a-tetrahydro-5H-pyrido[2,3-a]pyrrolizin-4-yl)thiophene-2-carboxamide]"
23,860,CO[C@H]1C[C@@H](Nc2nccc3cc(-c4c5c(nc(CCC6CCOCC6)c4-c4nnc(C)o4)[C@@H]4CCCN4C5=O)sc23)c2ccccc21 [Compound 74]
24,37,CC(C)c1nnc(-c2c(CCc3ccc(F)cc3)nc3c(c2-c2ccc(C(=O)NCc4ccc(F)c(F)c4)s2)C(=O)N2CCC[C@@H]32)o1 [Compound 21]
25,52.5,"Cc1ncoc1-c1c(CCc2ccc(F)cc2)nc2c(c1-c1ccc(C(=O)NCc3ccc(F)c(F)c3)s1)S(=O)(=O)N1CCC[C@@H]21 [Compound 33, (S)—N-(3,4-difluorobenzyl)-5-(2-(4-fluorophenethyl)-3-(4-methyloxazol-5-yl)-5,5-dioxido-7,8,9,9a-tetrahydropyrrolo[1′,2′:2,3]isothiazolo[4,5-b]pyridin-4-yl)thiophene-2-carboxamide]"
26,113,"Cc1nnc(-c2c(CCc3ccc(F)cc3)nc3c(c2-c2ccc(C(=O)NCc4cncc(F)c4)s2)C(=O)N2CCC[C@@H]32)o1 [Compound 12, (S)-5-(2-(4-fluorophenethyl)-3-(5-methyl-1,3,4-oxadiazol-2-yl)-5-oxo-7,8,9,9a-tetrahydro-5H-pyrido[2,3-a]pyrrolizin-4-yl)-N-((5-fluoropyridin-3-yl)methyl)thiophene-2-carboxamide]"
